Experimental data taken from patent publication US11690824B2, “Antibacterial compounds” (THE GENERAL HOSPITAL CORPORATION, priority 2018, dated 2023).
In brackets after ≈: the same amount, converted by molar mass.

Experiments:
[1] = tested on: S. aureus and Enterococcus faecium clinical strains; experiment: MIC against a panel of clinical strains; type: cell-based; conditions: panel incl. multidrug-resistant MW2 and VRS1; read-out: minimal inhibitory concentration (MIC)
Text: (§1) Bacterial strains, growth conditions, and persister isolation. Methicillin-resistant S. aureus strains, MW2 BAA-1707, ATCC 33591, and JE2, methicillin-susceptible S. aureus strains, NCTC 8325, Newman, and ATCC 29213, vancomycin-resistant S. aureus strain, VRS1, Enterococcus faecium E007, vancomycin-resistant E. faecium strains, C68,^7 WB312, and WC196, Klebsiella pneumoniae WGLW2 (BEI Resources, Manassas, Va., USA), Acinetobacter baumannii ATCC 17978, Pseudomonas aeruginosa PA14, and Enterobacter aerogenes ATCC 13048 were used to test antimicrobial activity (Table 1). S. aureus strains were grown in tryptic soy broth (TSB) (BD, Franklin Lakes, N.J., USA), and E. faecium was grown in brain-heart infusion (BHI) broth (BD, Franklin Lakes, N.J., USA) at 37° C. K. pneumoniae, A. baumannii, P. aeruginosa, and E. aerogenes were grown in Luria Bertani (LB) broth (BD, Franklin Lakes, N.J., USA) at 37° C.
(§2) Minimal inhibitory concentration (MIC) assay. The MICS of antibiotics were determined by the standard micro-dilution method recommended by the Clinical and Laboratory Standards Institute. MIC assays were conducted in biological triplicate.

[2] = tested on: E. aerogenes ATCC 13048; experiment: MIC assay; type: cell-based, Enterobacter aerogenes; conditions: Klebsiella aerogenes, ATCC13048; E. aerogenes ATCC 13048; read-out: Minimum inhibitory concentration
Text: as §1, §2

[3] = tested on: K. pneumoniae WGLW2; experiment: MIC assay; type: cell-based, Klebsiella pneumoniae; conditions: Klebsiella pneumoniae; K. pneumoniae WGLW2; read-out: Minimum inhibitory concentration
Text: as §1, §2

[4] = tested on: MRSA MW2; experiment: Transmission electron microscopy; conditions: 4× MIC for 2 h
[5] = tested on: HKC-8; experiment: Cytotoxicity (WST-1); type: cell-based; conditions: 32 μg/ml
Method: (§3) Cytotoxicity. […] HepG2 and HKC-8 cells were grown in Dulbecco's modified Eagle F-12 media mixed 1:1 with Ham's F-12 (DMEM/F-12, Life Technologies, Carlsbad, Calif., USA) supplemented with 10% FBS and 4 mM L-glutamine at 37° C. in 5% CO2. For cytotoxicity assays, HepG2 or HKC-8 was cultured in 96-well plates in 100 μL/well of the proper media to reach 70-80% confluence. The cells were then treated with a range of concentrations of nTZDpa or its analogs for 72 h. 10 μL of WST-1 (Roche, Mannheim, Germany) was added per well for the last 4 h of the 72 h period. WST-1 reduction was measured at absorbance 450 nm. The percent […] relative to that of the no-treatment control was calculated. The assay was carried out in biological triplicate.

[6] = tested on: HepG2; experiment: Cytotoxicity (WST-1); type: cell-based; conditions: 32 μg/ml
Method: as §3

O=C(O)c1c(Sc2ccccc2)c2cc(Cl)ccc2n1Cc1ccc(Cl)cc1 [nTZDpa] was tested, and the MIC [1] was about 4 µg/mL (≈ 9.34 µM), the MIC [2] was over 64 µg/mL and the MIC [3] was over 64 µg/mL. For the same molecule, the “cell morphology by TEM” value [4] was “formation of mesosome-like structures in most cells, abnormal cell division, and cell lysis”, the “cell death of HKC-8” value [5] was about 16% and the “cell death of HepG2” value [6] was about 30%.
